According to the supplement of paper PMC10307832:

Columns and labels:
Assay in all cases: relative viability (nuclei count vs DMSO), 5 days (fraction); higher = more cells survive
[1] = compound: COc1cc2ncn(-c3cc(OCc4ccccc4C(F)(F)F)c(C(N)=O)s3)c2cc1OC + CCNC(=O)c1noc(-c2cc(C(C)C)c(O)cc2O)c1-c1ccc(CN2CCOCC2)cc1 [Luminespib] (partner 0.01 µM)
Summary of the method: (§1)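 Relative viability is defined as nuclei in treated wells over nuclei in vehicle wells. Duplicate plates were run and medians reported. Lung cancer cell lines in 1536-well plates were dosed by pin tool one day after seeding, with one drug or with a fixed anchor-drug dose plus five library-drug doses (not always all listed) in √10 steps, and nuclei were counted after 5 days.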

[2] = compound: COc1cc2ncn(-c3cc(OCc4ccccc4C(F)(F)F)c(C(N)=O)s3)c2cc1OC + CC(C)C[C@H](NC(=O)[C@H](Cc1ccccc1)NC(=O)c1cnccn1)B(O)O [Bortezomib] (partner 0.002 µM)
Summary of the method: as §1

[3] = compound: COc1cc2ncn(-c3cc(OCc4ccccc4C(F)(F)F)c(C(N)=O)s3)c2cc1OC + Cc1nc(Nc2ncc(C(=O)Nc3c(C)cccc3Cl)s2)cc(N2CCN(CCO)CC2)n1 [Dasatinib] (partner 0.075 µM)
Summary of the method: as §1

[4] = compound: COc1cc2ncn(-c3cc(OCc4ccccc4C(F)(F)F)c(C(N)=O)s3)c2cc1OC + CC(=O)c1c(C)c2cnc(Nc3ccc(N4CCNCC4)cn3)nc2n(C2CCCC2)c1=O [Palbociclib] (partner 0.5 µM)
Summary of the method: as §1

| Cell Line | relative viability ([1]; first compound 0.05 µM) | relative viability ([1]; first compound 0.1581 µM) | relative viability ([1]; first compound 0.5 µM) | relative viability ([1]; first compound 1.581 µM) | relative viability ([1]; first compound 5 µM) | relative viability ([2]; first compound 0.05 µM) | relative viability ([2]; first compound 0.1581 µM) | relative viability ([2]; first compound 0.5 µM) | relative viability ([2]; first compound 1.581 µM) | relative viability ([2]; first compound 5 µM) | relative viability ([3]; first compound 0.05 µM) | relative viability ([3]; first compound 0.1581 µM) | relative viability ([3]; first compound 0.5 µM) | relative viability ([3]; first compound 1.581 µM) | relative viability ([3]; first compound 5 µM) | relative viability ([4]; first compound 0.05 µM) | relative viability ([4]; first compound 0.1581 µM) | relative viability ([4]; first compound 0.5 µM) | relative viability ([4]; first compound 1.581 µM) | relative viability ([4]; first compound 5 µM) |
| --- | --- | --- | --- | --- | --- | --- | --- | --- | --- | --- | --- | --- | --- | --- | --- | --- | --- | --- | --- | --- |
| NCI-H1792 | 0.509 | 0.397 | 0.339 | 0.208 | 0.185 | 0.958 | 0.91 | 0.88 | 0.423 | 0.223 | 0.786 | 0.757 | 0.372 | 0.287 | 0.25 | 0.728 | 0.631 | 0.568 | 0.377 | 0.332 |
| NCI-H1355 | 0.635 | 0.623 | 0.424 | 0.221 | 0.163 | 1.15 | 1.15 | 0.95 | 0.232 | 0.164 | 0.707 | 0.739 | 0.491 | 0.163 | 0.143 | 0.271 | 0.423 | 0.345 | 0.186 | 0.152 |
| UMC-11 | 0.974 | 0.722 | 0.128 | 0.161 | 0.145 | 0.634 | 0.596 | 0.119 | 0.131 | 0.0891 | 0.533 | 0.399 | 0.168 | 0.18 | 0.133 | 0.331 | 0.35 | 0.258 | 0.256 | 0.224 |
| NCI-H2347 | 0.522 | 0.303 | 0.419 | 0.346 | 0.465 | 1.1 | 0.861 | 0.543 | 0.372 | 0.479 | 0.32 | 0.258 | 0.278 | 0.228 | 0.258 | 0.373 | 0.413 | 0.397 | 0.377 | 0.375 |
| LCLC-97TM1 | 0.757 | 0.719 | 0.415 | 0.167 | 0.197 | 0.77 | 0.71 | 0.354 | 0.0568 | 0.0894 | 0.743 | 0.74 | 0.761 | 0.214 | 0.128 | 0.216 | 0.191 | 0.17 | 0.0856 | 0.111 |
| EMC-BAC-2 | 1.19 | 1.22 | 0.931 | 0.569 | 0.219 | 1.19 | 1.08 | 0.925 | 0.416 | 0.278 | 0.328 | 0.361 | 0.296 | 0.168 | 0.139 | 0.478 | 0.512 | 0.476 | 0.376 | 0.272 |
| NCI-H1975 | 0.229 | 0.26 | 0.184 | 0.163 | 0.233 | 0.371 | 0.335 | 0.182 | 0.144 | 0.115 | 0.415 | 0.335 | 0.207 | 0.126 | 0.109 | 0.613 | 0.33 | 0.193 | 0.198 | 0.148 |
| BEN | 0.398 | 0.522 | 0.227 | 0.21 | 0.214 | 0.911 | 0.476 | 0.801 | 0.253 | 0.244 | 0.363 | 0.327 | 0.29 | 0.186 | 0.229 | 0.5 | 0.455 | 0.471 | 0.45 | 0.437 |
| NCI-H23 | 0.211 | 0.209 | 0.213 | 0.206 | 0.22 | 1.14 | 0.847 | 0.648 | 0.132 | 0.117 | 0.801 | 0.636 | 0.426 | 0.11 | 0.0948 | 0.313 | 0.408 | 0.285 | 0.148 | 0.121 |
| NCI-H520 | 0.218 | 0.25 | 0.21 | 0.261 | 0.2 | 0.689 | 0.568 | 0.25 | 0.169 | 0.144 | 0.239 | 0.202 | 0.157 | 0.191 | 0.193 | 0.149 | 0.253 | 0.179 | 0.155 | 0.121 |
| CAL-12T | 0.858 | 0.44 | 0.446 | 0.217 | 0.102 | 0.944 | 0.821 | 0.608 | 0.242 | 0.199 | 0.415 | 0.249 | 0.0865 | 0.105 | 0.122 | 0.411 | 0.422 | 0.381 | 0.187 | 0.148 |
| EPLC-272H | – | 0.31 | 0.115 | 0.111 | 0.153 | 1.05 | 0.82 | 0.567 | 0.0851 | 0.135 | – | 0.408 | 0.142 | 0.0755 | 0.103 | 0.273 | 0.322 | 0.222 | 0.144 | 0.226 |
| LCLC-103H | 0.771 | 0.927 | 0.594 | 0.273 | 0.151 | 1 | 1.03 | 0.744 | 0.522 | 0.208 | 0.466 | 0.522 | 0.341 | 0.176 | 0.175 | 0.477 | 0.471 | 0.456 | 0.35 | 0.302 |
| NCI-H2405 | 0.76 | 0.601 | 0.341 | 0.283 | 0.338 | 1.02 | 0.492 | 0.835 | 0.401 | 0.557 | 0.24 | 0.21 | 0.171 | 0.162 | 0.131 | 0.511 | 0.508 | 0.382 | 0.343 | 0.332 |
| HCC-15 | 0.312 | 0.291 | 0.149 | 0.101 | 0.0855 | 0.99 | 0.89 | 0.785 | 0.142 | 0.114 | 0.582 | 0.548 | 0.242 | 0.105 | 0.0655 | 0.729 | 0.702 | 0.519 | 0.167 | 0.141 |
| RERF-LC-KJ | 1.31 | 1.24 | 0.373 | 0.306 | 0.268 | 1.14 | 1.12 | 0.67 | 0.357 | 0.558 | 0.846 | 0.748 | 0.336 | 0.21 | 0.182 | 1.03 | 1.16 | 0.71 | 0.616 | 0.46 |
